Results published in patent US20050164233A1, “Compositions, kits and methods for identification and modulation of type I diabetes” (priority 2000, published 2005).

Key:
[1] = test system: Vα24JαQ T cell clone GW4 (nondiabetic, IL-4+); experiment: Cytokine secretion (ELISA) from anti-CD3-activated Vα24JαQ T cell clone GW4, inhibitor studies; format: cell-based, human; details: IL-4+ clone; for IL-4 secretion after inhibition of PI3-kinase: anti-CD3 plus PI3-kinase inhibitor, 1 ng/ml PMA or 1 μg/ml ionomycin included; for secretion of IFN-γ / anti-CD3-induced IL-4 secretion: plate-bound anti-CD3 1 μg/ml, 4 h, ELISA, 10 nM wortmannin; for secretion of IFN-γ: 10 μM LY294002; for anti-CD3-induced IL-4 secretion: 10 μM LY294002, 50 μM PD98059, 50 μM SB203580
Experimental: (§1) Single, Vα24-positive, CD4/8 negative single-cell sorts were grown on irradiated allogeneic feeders at 50,000 cells per well with 5,000 cells per well irradiated (5,000 rads) 721.221 lymphoblastoid cells with 1 μg/ml PHA-P, IL-2 and IL-7 each at 10 units/ml (Boehringer Mannheim) and propagated as described (Wilson et al. (1998) Nature 391: 177-181). Clones positive for Vα24 and NKR-P1A by flow cytometry and a Vα24JαQ CDR3 T cell antigen receptor sequence were assayed for cytokine secretion in C1R/CD1s restriction experiments. For cytokine secretion and inhibitor studies, Vα24JαQ T cell clones GW4 (nondiabetic) and ME10 (diabetic) at 5×10^4 cells per well were activated with plate-bound anti-CD3 or Ig control at 1 μg/ml. Secreted IL-4 and IFN-γ were assayed by ELISA after 4 h of activation as described (Wilson et al. (1998) Nature 391: 177-181). Optimal concentrations of inhibitors previously were determined by inhibitor dose-response experiments. The concentrations of inhibitors used were 10 nM wortmannin; 10 μM LY294002, 50 μM PD98059, a mitogen-activated protein kinase kinase inhibitor, and 50 μM SB203580, a p38 kinase inhibitor. The concentrations of phorbol ester and calcium ionophore used were 1 ng/ml phorbol 12-myristate 13-acetate (PMA) and 1 μg/ml ionomycin. Cyclosporin A (CsA) was used at 5 ng/ml as a negative control, due to itS ability to prevent T cell activation. Calcium flux was determined by loading cells with indo-1 as per the manufacturer's specifications (Molecular Probes), followed by activation with anti-CD3 at 10 μg/ml. Maximal calcium flux was determined by the addition of ionomycin.

[2] = test system: Vα24JαQ T cell clone ME10 (diabetic, IL-4-null); experiment: Cytokine secretion (ELISA) from anti-CD3-activated Vα24JαQ T cell clone ME10, inhibitor studies; format: cell-based, human; details: for defect in IL-4 secretion: diabetic-derived clone ME10, 1 ng/ml PMA, 1 μg/ml ionomycin, alone or in combination; for secretion of IFN-γ: IL-4-null clone, plate-bound anti-CD3 1 μg/ml, 4 h, ELISA, 10 nM wortmannin, 10 μM LY294002
Experimental: as §1

With CCCCCCCCCCCCCC(=O)O[C@@H]1[C@@H](C)[C@@]2(O)[C@@H](C=C(CO)C[C@]3(O)C(=O)C(C)=C[C@@H]23)[C@@H]2C(C)(C)[C@]12OC(C)=O [PMA, phorbol 12-myristate 13-acetate] the “IL-4 secretion after inhibition of PI3-kinase” value [1] was “rescued” and the “defect in IL-4 secretion” value [2] was “Neither of these substances alone or in combination repaired the defect”.
O=c1cc(N2CCOCC2)oc2c(-c3ccccc3)cccc12 [LY294002] was tested, and the “secretion of IFN-γ” value [1] was “no effect” and the “secretion of IFN-γ” value [2] was “no effect”.
With COc1cccc(-c2cc(=O)c3ccccc3o2)c1N [PD98059] the “anti-CD3-induced IL-4 secretion” value [1] was “no effect”.
In the case of C[S+]([O-])c1ccc(-c2nc(-c3ccncc3)c(-c3ccc(F)cc3)[nH]2)cc1 (stereo not shown) [SB203580], the “anti-CD3-induced IL-4 secretion” value [1] is reported as “no effect”.
In the case of COC[C@H]1OC(=O)c2coc3c2[C@@]1(C)C1=C(C3=O)[C@@H]2CCC(=O)[C@@]2(C)C[C@H]1OC(C)=O [wortmannin], the “secretion of IFN-γ” value [1] is reported as “no effect” and the “secretion of IFN-γ” value [2] is reported as “no effect”.
With C[C@H](CCC(=O)O)C[C@H](C)C[C@H](C)C(=O)/C=C(\O)[C@H](C)C[C@H](C)C/C=C/[C@@H](C)[C@@H](O)[C@@H](C)[C@@H](O)C[C@@H]1CC[C@@](C)([C@H]2CC[C@@](C)([C@@H](C)O)O2)O1 [ionomycin] the “IL-4 secretion after inhibition of PI3-kinase” value [1] was “rescued” and the “defect in IL-4 secretion” value [2] was “Neither of these substances alone or in combination repaired the defect”.
